IC50 data for 1 compound are collected here from doi:10.1101/2024.12.09.627564, “Cannabinoid inhibition of mechanosensitive K^+ channels” (bioRxiv, 2024).

The target of the assay is T1, Danio rerio TREK-1 (Danio rerio, UniProt F1QAI2).
T1 sequence (F1QAI2 1-426): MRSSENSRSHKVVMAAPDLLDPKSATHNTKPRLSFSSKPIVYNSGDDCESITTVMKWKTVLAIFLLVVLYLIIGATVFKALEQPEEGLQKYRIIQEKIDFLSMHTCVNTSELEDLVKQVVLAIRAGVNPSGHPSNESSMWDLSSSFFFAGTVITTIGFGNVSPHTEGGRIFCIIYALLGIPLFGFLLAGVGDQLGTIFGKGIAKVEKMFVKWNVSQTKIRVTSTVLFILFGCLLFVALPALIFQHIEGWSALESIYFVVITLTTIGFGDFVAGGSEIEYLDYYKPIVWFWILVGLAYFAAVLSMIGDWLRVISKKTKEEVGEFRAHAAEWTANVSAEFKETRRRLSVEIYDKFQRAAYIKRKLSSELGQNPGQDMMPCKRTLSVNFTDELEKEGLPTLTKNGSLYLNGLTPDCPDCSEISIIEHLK
In words: Patch recording of Danio rerio TREK-1 from cultured cells. The following applies: IC50, Danio rerio TREK-1, patches. The format is biochemical. The protocol:
For patch clamp recording from cultured cells, drTREK-1 or hsTRAAK genes were cloned into a modified pCEH vector to generate C-terminally EGFP-tagged constructs. HEK293T were cultured in DMEM (Gibco, Thermo Fisher Scientific) with 10% FBS and 100 U ml−1 penicillin and 100 μg ml−1 streptomycin. Trypsinized cells were deposited on 12-mm glass coverslips in a six-well dish one to two days before transfection. For transfection, drTREK-1 or hsTRAAK plasmids were mixed with FuGENE 6 in OptiMEM at a 1:3 ratio with 1 μg DNA per well per construct and applied to cells in growth medium with antibiotics. Patching was conducted from 24 to 60 h post-transfection. Coverslips were placed in a perfusion chamber at room temperature in isotonic bath solution: 135 mM NaCl, 15 mM KCl, 1 mM CaCl2, 1 mM MgCl2, 10 mM HEPES, adjusted to a final pH of 7.5 with NaOH. Cells were chosen by a combination of the presence GFP fluorescence and cell morphology consistent with healthy interphase cells. […]
Patches were evaluated with voltage-step protocols to confirm TRAAK expression and minimal non-specific leak based on reversal potential. Currents were recorded using an Axopatch 200B amplifier (Molecular Devices) at a bandwidth of 1 kHz and digitized with an Digidata 1550B (Molecular Devices) at 100–500 kHz using pClamp10.7 software. […] Data were analyzed using Clampfit 10.7, Excel, and Graphpad Prism software. […]

pIC50: −log10 of the molar value.

For orientation: pIC50 means the negative decadic logarithm of the IC50, by convention in mol/L. For the compound `C=C(C)[C@@H]1CCC(C)=C[C@H]1c1c(O)cc(CCCCC)cc1O` [CBD, Cannabidiol], the pIC50 is 4.95.
